From ChEMBL document CHEMBL1201862, “PubChem BioAssay data set” (2004)
Activity calls are given as the source filed them.

Legend:
Transthyretin = Transthyretin (Homo sapiens, UniProt P02766); assay: Luminescence-based cell-based high throughput dose response assay to identify activators of Transthyretin (TTR) transcription.; type: functional
H4 = assay: Luminescence Cell-Based Dose Response HTS to Identify Activators of 5'UTR Stem-Loop Driven Prion Protein mRNA Translation in H4 Neuroglioblastoma Cells. [Related pubchem assays: 1829 (Project Summary), 1814 (Primary HTS)]; type: functional; conditions: Homo sapiens
[1] = Luminescence Cell-Based Dose Confirmation HTS to Identify Activators of 5'UTR Stem-Loop Driven Alpha-Synuclein mRNA Translation in H4 Neuroglioblastoma Cells. [Related pubchem assays: 1829 (Project Summary), 1814 (Primary HTS)]; type: functional
[2] = Luminescence Cell-Based Dose Response HTS to Identify Activators of Luciferase Translation or Activity in H4 […] Cells. [Related pubchem assays: 1829 (Project Summary), 1814 (Primary HTS)]; type: functional
[3] = T. cruzi growth inhibition in host cells, dose response, cell-based, plate reader, dry powder, set 2 (AID 652275); type: functional
[4] = P. falciparum Dd2 growth inhibitors, dose response, SYBR Green, cherry-picked samples (AID 1159567); type: functional, cell-based
[5] = NIH/3T3 fibroblast cytotoxicity, dose response, cytotoxicity control, cell-based, plate reader, dry powder, set 2 (AID 652280); type: functional; conditions: NIH3T3
[6] = cytotoxicity in COV434 cells, dose response, cytotoxicity control for PAX8 inhibitor project, cell-based, plate reader, dry powder, SA7 (AID 743145); type: functional
[7] = cytotoxicity in OVCAR4 cells, dose response, cytotoxicity control for PAX8 inhibitor project, cell-based, plate reader, dry powder, SA11 (AID 743150); type: functional; conditions: OVCAR-4
[8] = cytotoxicity in OV-90 ovarian cancer cells, dose response, PAX8 inhibitor project, cell-based, plate reader, dry powder, SA8 (AID 743149); type: functional
[9] = cytotoxicity in COV362 ovarian cancer cells, dose response, cytotoxicity control for PAX8 inhibitor project, cell-based, plate reader, dry powder, SA12 (AID 743144); type: functional
[10] = PAX5 activity inhibitors, dose response, selectivity assay for PAX8 inhibitor project, cell-based, plate reader, dry powder samples (AID 743047); type: functional;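 also: HEK293 cells carrying a Pax5 driven CD19 promoter luciferase reporter; potency of inhibitors that lower reporter luminescence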
[11] = IGROV1 ovarian cancer cell cytotoxicity, dose response, PAX8 inhibitor project, plate reader, dry powder samples (AID 743043); type: functional, cell-based; conditions: IGROV-1
[12] = PAX2 cell-based inhibition, dose response, selectivity assay for PAX8 inhibitor project, plate reader, dry powder samples (AID 743048); type: functional;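 also: HEK293 cells carrying a WT1 promoter luciferase reporter driven by expressed Pax2; potency is for inhibition of Pax2 driven reporter signal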
[13] = cytotoxicity dependent on PAX8, dose response, cell-based, plate reader, dry powder (AID 743049); type: functional
Paired box protein Pax-8 = Paired box protein Pax-8 (Homo sapiens, UniProt Q06710); assay: inhibitors of PAX8-driven TPO luciferase reporter, dose response, RMG-I cells, cherry-pick (AID 687027); type: functional, cell-based;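 also: luciferase reporter driven by Pax8 target thyroperoxidase promoter measured by SteadyGlo luminescence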
Sequence of Paired box protein Pax-8 (Q06710 whole entry): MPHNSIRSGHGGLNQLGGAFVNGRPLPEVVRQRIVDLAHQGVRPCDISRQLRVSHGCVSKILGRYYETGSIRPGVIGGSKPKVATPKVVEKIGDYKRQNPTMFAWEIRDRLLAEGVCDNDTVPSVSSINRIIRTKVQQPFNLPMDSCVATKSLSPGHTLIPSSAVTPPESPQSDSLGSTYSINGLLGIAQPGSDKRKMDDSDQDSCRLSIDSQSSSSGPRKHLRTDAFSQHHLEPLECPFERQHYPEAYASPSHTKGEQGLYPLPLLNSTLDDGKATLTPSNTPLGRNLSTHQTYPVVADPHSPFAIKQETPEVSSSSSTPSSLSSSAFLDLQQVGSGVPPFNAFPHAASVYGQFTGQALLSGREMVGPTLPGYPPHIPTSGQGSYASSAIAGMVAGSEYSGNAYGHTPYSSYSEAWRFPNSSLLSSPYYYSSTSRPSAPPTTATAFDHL

[14] = NIH:OVCAR-3 ovarian cancer cell cytotoxicity, dose response, PAX8 inhibitor project, plate reader, dry powder samples (AID 743044); type: functional, cell-based
[15] = biological target: Arf-GAP with SH3 domain, ANK repeat and PH domain-containing protein 1 (Homo sapiens, UniProt Q9ULH1); type: functional;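 also: biochemical fluorescence polarization dose–response screen measuring inhibition of ASAP1; ASAP1 GAP domain stimulating GTP hydrolysis by truncated human ARF1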
Sequence of Arf-GAP with SH3 domain, ANK repeat and PH domain-containing protein 1 (Q9ULH1 whole entry, the tested form may be a part): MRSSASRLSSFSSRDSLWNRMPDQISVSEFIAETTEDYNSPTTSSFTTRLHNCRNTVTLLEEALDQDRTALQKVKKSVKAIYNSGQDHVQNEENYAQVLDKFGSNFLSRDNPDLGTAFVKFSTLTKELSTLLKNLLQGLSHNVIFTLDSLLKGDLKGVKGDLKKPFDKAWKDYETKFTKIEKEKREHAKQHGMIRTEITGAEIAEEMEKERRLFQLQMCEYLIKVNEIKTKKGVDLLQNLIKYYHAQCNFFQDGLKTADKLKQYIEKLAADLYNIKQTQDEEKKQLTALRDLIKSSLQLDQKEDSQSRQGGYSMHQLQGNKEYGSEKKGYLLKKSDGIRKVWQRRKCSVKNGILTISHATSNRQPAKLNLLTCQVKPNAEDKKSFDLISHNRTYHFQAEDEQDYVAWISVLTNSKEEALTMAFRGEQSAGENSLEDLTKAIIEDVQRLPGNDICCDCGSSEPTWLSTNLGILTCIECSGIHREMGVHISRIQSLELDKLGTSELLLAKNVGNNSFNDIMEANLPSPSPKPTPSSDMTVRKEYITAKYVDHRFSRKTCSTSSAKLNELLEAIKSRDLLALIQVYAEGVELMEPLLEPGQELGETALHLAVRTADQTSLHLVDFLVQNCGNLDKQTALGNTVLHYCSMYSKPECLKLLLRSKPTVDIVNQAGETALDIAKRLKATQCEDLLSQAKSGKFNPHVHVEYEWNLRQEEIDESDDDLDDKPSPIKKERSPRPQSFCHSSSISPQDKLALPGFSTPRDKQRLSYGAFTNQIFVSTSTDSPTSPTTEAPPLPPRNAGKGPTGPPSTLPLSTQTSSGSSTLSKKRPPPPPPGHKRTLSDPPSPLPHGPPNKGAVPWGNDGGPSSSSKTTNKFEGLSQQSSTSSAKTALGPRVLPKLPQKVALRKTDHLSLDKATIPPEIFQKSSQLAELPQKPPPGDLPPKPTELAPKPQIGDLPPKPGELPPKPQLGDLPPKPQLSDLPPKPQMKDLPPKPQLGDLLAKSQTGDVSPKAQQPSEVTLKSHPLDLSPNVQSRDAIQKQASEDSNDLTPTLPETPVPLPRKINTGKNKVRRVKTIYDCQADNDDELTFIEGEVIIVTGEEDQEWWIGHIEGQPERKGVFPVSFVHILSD

[16] = biological target: ADP-ribosylation factor GTPase-activating protein 1 (Rattus norvegicus, UniProt Q62848); assay: Fluorescence polarization-based biochemical high throughput dose response screening assay to identify inhibitors of ADP-ribosylation factor GTPase activating protein 1 (ARFGAP1).; type: functional
Sequence of ADP-ribosylation factor GTPase-activating protein 1 (Q62848 whole entry): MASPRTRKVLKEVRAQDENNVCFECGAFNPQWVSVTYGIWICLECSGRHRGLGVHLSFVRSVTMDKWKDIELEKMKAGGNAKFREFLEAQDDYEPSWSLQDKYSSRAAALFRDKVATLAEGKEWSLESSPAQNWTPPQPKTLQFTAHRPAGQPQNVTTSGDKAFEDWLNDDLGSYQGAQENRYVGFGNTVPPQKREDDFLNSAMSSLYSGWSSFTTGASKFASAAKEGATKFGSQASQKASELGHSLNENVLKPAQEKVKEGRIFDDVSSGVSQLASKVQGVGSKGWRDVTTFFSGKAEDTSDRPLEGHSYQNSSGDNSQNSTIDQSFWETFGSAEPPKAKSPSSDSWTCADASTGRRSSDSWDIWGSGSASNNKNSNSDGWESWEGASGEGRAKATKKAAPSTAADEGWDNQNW

[17] = biological target: Endoplasmic reticulum aminopeptidase 1 (Homo sapiens, UniProt Q9NZ08); assay: ERAP1 aminopeptidase inhibitors, dose response, biochemical, cherry-pick, set 2, plate reader (AID 743314)
Sequence of Endoplasmic reticulum aminopeptidase 1 (Q9NZ08 whole entry): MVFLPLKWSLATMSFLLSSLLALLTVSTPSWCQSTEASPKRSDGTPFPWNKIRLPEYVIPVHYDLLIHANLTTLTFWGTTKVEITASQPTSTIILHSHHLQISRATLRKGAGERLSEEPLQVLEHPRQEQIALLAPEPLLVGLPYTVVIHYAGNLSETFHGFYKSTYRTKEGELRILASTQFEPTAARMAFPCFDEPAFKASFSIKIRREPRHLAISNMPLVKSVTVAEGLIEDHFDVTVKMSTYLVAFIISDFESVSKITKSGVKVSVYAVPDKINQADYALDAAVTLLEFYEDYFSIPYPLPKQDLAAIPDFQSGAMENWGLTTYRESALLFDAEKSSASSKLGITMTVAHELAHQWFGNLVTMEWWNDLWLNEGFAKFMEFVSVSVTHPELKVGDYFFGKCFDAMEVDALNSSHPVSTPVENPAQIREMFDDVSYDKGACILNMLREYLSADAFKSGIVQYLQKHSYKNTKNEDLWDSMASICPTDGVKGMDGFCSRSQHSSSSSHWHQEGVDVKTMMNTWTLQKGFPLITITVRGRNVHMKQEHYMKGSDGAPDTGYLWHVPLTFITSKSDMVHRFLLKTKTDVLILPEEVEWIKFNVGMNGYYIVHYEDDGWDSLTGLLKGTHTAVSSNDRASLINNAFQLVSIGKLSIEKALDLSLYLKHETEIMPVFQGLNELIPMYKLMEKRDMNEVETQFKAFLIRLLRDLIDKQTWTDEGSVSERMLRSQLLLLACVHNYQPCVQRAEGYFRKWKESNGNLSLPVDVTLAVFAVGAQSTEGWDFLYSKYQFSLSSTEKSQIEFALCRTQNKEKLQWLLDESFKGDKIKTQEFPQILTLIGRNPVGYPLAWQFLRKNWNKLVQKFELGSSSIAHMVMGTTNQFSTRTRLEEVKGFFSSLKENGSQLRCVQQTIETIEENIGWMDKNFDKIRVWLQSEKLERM

[18] = A Cell-Based Confirmatory Screen for Compounds that Inhibit VEEV, TC-83 (7).; type: functional
[19] = biological target: T1, Oxysterols receptor LXR-beta (Homo sapiens, UniProt P55055); type: functional, cell-based;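 also: Cell-based luminescence dose-response assay of agonist activity at LXR, run as a confirmatory counterscreen to a daf-12 agonist screen; HEK293 cells with Gal4-LXR fusion and GAL4-driven luciferase reporter; agonist potency from rising luciferase signal of a Gal4-LXR reporter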
T1 sequence (P55055 whole entry): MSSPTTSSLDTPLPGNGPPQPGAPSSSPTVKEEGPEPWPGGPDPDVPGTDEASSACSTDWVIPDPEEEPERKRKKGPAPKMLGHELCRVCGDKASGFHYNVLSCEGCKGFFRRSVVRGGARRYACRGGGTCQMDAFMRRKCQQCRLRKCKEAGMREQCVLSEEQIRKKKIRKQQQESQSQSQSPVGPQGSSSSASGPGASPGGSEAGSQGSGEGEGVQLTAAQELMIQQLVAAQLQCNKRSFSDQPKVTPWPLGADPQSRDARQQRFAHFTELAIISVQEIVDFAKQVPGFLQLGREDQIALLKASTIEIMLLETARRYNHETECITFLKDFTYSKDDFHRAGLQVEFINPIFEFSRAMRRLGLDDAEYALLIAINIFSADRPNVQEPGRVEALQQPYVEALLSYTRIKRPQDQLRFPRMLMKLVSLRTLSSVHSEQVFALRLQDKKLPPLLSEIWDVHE

Protein skinhead-1 = biological target: T2, Protein skinhead-1 (Caenorhabditis elegans, UniProt P34707); type: functional
T2 sequence (P34707 whole entry): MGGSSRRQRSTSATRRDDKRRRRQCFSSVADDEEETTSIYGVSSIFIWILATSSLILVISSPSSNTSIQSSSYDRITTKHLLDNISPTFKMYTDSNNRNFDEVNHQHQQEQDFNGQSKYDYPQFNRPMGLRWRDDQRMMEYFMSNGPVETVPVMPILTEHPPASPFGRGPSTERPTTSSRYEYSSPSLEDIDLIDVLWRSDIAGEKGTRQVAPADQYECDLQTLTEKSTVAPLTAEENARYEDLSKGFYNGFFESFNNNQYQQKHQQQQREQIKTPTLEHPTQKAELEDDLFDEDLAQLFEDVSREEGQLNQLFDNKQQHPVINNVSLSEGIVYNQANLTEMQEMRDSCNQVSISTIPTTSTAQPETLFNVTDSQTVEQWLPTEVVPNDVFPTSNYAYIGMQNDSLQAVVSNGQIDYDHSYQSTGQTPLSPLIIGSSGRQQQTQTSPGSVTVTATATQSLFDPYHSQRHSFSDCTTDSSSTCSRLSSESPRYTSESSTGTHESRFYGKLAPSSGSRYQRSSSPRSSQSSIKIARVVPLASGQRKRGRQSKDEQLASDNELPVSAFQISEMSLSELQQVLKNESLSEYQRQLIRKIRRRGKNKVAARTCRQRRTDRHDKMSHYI

[20] = biological target: RNA-editing ligase 1, mitochondrial (Trypanosoma brucei brucei, UniProt P86926); assay: TbREL1 ligase inhibitors, dose response, biochemical, fluorescence, Trypanosoma brucei (AID 1117295); type: functional
Sequence of RNA-editing ligase 1, mitochondrial (P86926 whole entry): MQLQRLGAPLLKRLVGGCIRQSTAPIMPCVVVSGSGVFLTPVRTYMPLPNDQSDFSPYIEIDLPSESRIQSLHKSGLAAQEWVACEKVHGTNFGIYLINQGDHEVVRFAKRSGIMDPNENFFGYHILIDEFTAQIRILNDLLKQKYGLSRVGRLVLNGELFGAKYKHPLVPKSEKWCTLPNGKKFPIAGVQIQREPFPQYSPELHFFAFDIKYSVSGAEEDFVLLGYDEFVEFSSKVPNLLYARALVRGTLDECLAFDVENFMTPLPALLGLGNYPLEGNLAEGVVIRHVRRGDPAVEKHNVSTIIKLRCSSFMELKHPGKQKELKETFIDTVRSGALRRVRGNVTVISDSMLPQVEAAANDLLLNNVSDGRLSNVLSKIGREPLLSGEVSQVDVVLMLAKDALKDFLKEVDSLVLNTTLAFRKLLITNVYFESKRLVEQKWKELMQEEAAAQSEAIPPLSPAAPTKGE

[21] = IOSE-T80 ovarian epithelial cell cytotoxicity, dose response, cytotoxicity control for PAX8 inhibitor project, plate reader, dry powder samples (AID 743045); type: functional, cell-based
[22] = non-specific cell cytotoxicity, dose response, cytotoxicity control for PAX8 inhibitor project, plate reader, dry powder samples (AID 743021); type: functional, cell-based
[23] = Late stage results for the probe development effort to identify inhibitors of Plasmodium falciparum gametocytes: Luminescence-based cell-based high throughput dose response assay to identify inhibitors of viability of late stage Plasmodium falciparum gametocytes.; type: functional

Which EC50 (Transthyretin) does the source give for Cc1c(Br)c(C(=O)N2CCc3ccccc32)nn1C here?
The EC50 was > 167 µM (inactive).

And the EC50 (H4)?
Its EC50 is 99.2 µM (active).

What about the EC50 [1] of the same compound?
Its EC50 is 11.7 µM (active).

And the EC50 [2]?
Its EC50 is 6.16 µM (active).

With CN(C)CC#Cc1cccc(-c2nc(C(=O)N[C@@H]3CCN(Cc4ccccc4)C3)cc3c2[C@H](CCO)N([S+]([O-])C(C)(C)C)C3)c1 (some centres not stated) as the compound, how does the AC50 [3] read?
Its AC50 is 0.58 µM (active).

What about the AC50 [4] of the same compound?
The AC50 was 2.71 µM (active).

What about the AC50 [5] of the same compound?
Its AC50 is 5.14 µM (active).

What does the source list for COc1ccc(S(=O)(=O)Nc2ccc3c(c2)C(=O)N([C@@H](C)CO)C[C@H](C)[C@H](CN(C)Cc2ccc(C(F)(F)F)cc2)OCCCC[C@H](C)O3)cc1?
AC50 [6]: 26.5 µM (active); AC50 [7]: 33.6 µM (active); AC50 [8]: 21.9 µM (active); AC50 [9]: 38.3 µM (active); AC50 [10]: 19.6 µM (active); AC50 [11]: 34.5 µM (active); AC50 [12]: 15.5 µM (active); AC50 [13]: 24.2 µM (active); AC50 (Paired box protein Pax-8): 5.59 µM (active); AC50 [14]: 17.1 µM (active)

Which IC50 [15] does the source give for Cc1ccc2nc(SCC(=O)N3CCC(Cc4ccccc4)CC3)nc(=O)n2c1 here?
Its IC50 is 32.7 µM (inactive).

What about the IC50 [16] of the same compound?
Its IC50 is 26.9 µM (inactive).

For CCCNC(=O)[C@H]1[C@H](CO)[C@H]2Cn3c(ccc(/C=C/c4ccccc4)c3=O)[C@H]2N1CCC, which AC50 [17] is on record?
Its AC50 is 14.8 µM (active).

With O=c1c2cc([N+](=O)[O-])ccc2nc(CN2CCCNC2)n1-c1ccccc1 as the compound, how does the IC50 [18] read?
The IC50 was 1.13 µM (active).

With CNc1ccc(C=C2C=Cc3ccccc32)cc1 as the compound, how does the EC50 (cells) read?
Its EC50 is > 67.6 µM (inactive).

What about the EC50 [19] of the same compound?
Its EC50 is > 67.6 µM (inactive).

What about the IC50 (Protein skinhead-1) of the same compound?
Its IC50 is 20.5 µM (active).

For COC(=O)C1=C(C)N(Cc2ccc(C(F)(F)F)cc2)C(NCc2ccc(OC)cc2)=NC1c1ccccc1C(F)(F)F (configuration not stated), which IC50 [20] is on record?
The IC50 was > 96.6 µM (inactive).

For Cc1ccccc1CNC(=O)C1CCCN(c2nnc(C)c3c(C)n(-c4ccccc4)nc23)C1 (configuration not stated), which AC50 [6] is on record?
The AC50 was 98.3 µM (active).

And the AC50 [7]?
The AC50 was 61.3 µM (active).

What about the AC50 [8] of the same compound?
The AC50 was 9.9 µM (active).

What about the AC50 [9] of the same compound?
Its AC50 is 42.3 µM (active).

And the AC50 [21]?
Its AC50 is 91.9 µM (active).

And the AC50 [10]?
The AC50 was 24 µM (active).

And the AC50 [11]?
The AC50 was 32.4 µM (active).

And the AC50 [12]?
The AC50 was 4.18 µM (active).

What about the AC50 (Paired box protein Pax-8) of the same compound?
The AC50 was 5.95 µM (active).

What about the AC50 [22] of the same compound?
Its AC50 is < 29.5 µM (active).

What about the AC50 [14] of the same compound?
The AC50 was 42.8 µM (active).

Which IC50 [23] does the source give for O=C(Nc1nccs1)c1cc(-c2ccccc2)nn1-c1ccccc1 here?
Its IC50 is > 37.2 µM (inactive).
